Results reported in patent US12448363B2, “Kinase inhibitors” (Vidya Therapeutics, Inc., priority 2020, dated 2025).

Tests used:
[1] = system: BTK Activity in RAMOS B Cells; experiment: Assay to determine BTK activity in RAMOS B cells (anti-IgM, FLIPR Calcium 6); format: cell-based; details: EC80 anti-IgM, FLIPR calcium read
Experimental: On the day before assay, Ramos B cells were plated in plating medium (RPMI1640 medium containing 1% FBS and 1× pencillin-streptomycin). On the day of the assay, 2× dye solution was prepared following the manual of the FLIRP Calcium 6 Assay Kit: Dilute the dye with assay buffer (20 mM HEPES in 1×HBSS, pH7.4); Add probenecid to the final concentration of 5 mM; vortex vigorously for 1-2 minutes. Cells were collected by centrifuging, and the pellet was resuspended in plating medium. After counting, cells were resuspended at a density of 3×10^6/ml in plating medium. Equal volume of 2× dye solution was added to the cell suspension. Cells were then plated at 20 μl/well into a 384-well poly-D-lysine coated plate. Plate was centrifuged at 1000 rpm for 3 minutes and then incubated at 37° C. for 2 hours followed by an additional 15-minute incubation at 25° C. Compounds were prepared at 3× concentration in dilution buffer (20 mM HEPES and 0.1% BSA in 1×HBSS, pH 7.4). Serially diluted compound was transferred from source plate to a 384-well compound plate by using an Echo 550 (Labcyte). 20 μl/well compound dilution buffer was added to the compound plate and mixed on plate shaker for 2 mins. 4×EC80 of Anti-IgM (Jackson ImmunoResearch) was prepared in dilution buffer and 20 μl/well was added to a new 384-well compound plate. After 60 mins of incubation at 25° C. in the dark; cell plate, compound plate containing 4×EC80 of anti-IgM and FLIPR tips were placed into FLIPR (Molecular Devices). 10 ul/well of 4×EC80 anti-IgM was transferred to the cell plate by FLIPR. Plates were read for 160 sec with 1 sec interval.
With respect to Ramos activity, Table 9 lists activity as follows: • “A” denotes an IC50 of less than 10 nM; • “B” denotes an IC50 of from 10 nM to less than 100 nM; and • “C” denotes and IC50 of 100 nM or more.

BTK = BTK (Homo sapiens, UniProt Q06187); experiment: Assay to determine activity against BTK (EZ reader, FLPeptide); format: biochemical; parameters: purchased Carna; details: ATP (1 mM), BTK (2 nM), room temperature for 90 minutes
BTK, sequence (Q06187 whole entry): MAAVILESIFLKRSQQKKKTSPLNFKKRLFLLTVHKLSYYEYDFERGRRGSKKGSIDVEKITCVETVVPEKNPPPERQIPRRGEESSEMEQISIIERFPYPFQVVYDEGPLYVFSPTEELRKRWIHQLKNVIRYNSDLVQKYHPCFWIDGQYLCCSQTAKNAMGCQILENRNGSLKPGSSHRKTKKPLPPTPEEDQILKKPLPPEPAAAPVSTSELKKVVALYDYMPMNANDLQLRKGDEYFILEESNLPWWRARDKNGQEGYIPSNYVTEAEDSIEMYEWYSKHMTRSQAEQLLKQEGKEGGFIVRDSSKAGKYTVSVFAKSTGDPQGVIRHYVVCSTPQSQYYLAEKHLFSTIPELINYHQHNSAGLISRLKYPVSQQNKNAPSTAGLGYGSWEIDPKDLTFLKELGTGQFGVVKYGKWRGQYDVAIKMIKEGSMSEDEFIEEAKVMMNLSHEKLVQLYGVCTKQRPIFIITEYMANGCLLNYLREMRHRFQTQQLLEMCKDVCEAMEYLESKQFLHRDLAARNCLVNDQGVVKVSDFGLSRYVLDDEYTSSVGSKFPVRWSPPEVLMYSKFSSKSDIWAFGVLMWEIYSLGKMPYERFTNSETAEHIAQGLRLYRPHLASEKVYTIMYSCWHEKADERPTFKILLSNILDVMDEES
Experimental: Solutions of compounds (test or control) in DMSO were prepared at the desired concentrations, and serially diluted to 11 concentrations by 3-fold dilution in 384pp-plate using TECAN EVO200. 20 nL of stock were transferred to 384 plate using Echo550. DMSO was used as vehicle control.
Two separate solutions were prepared—an ATP solution containing MgCl2 (10 mM), Brij-35 (0.01%), DTT (2 mM), BSA (0.05%), EGTA (1 mM), HEPE (pH7.5) (50 mM), FLPeptide (6 uM) and ATP (4 mM); and a BTK solution containing MgCl2 (10 mM), Brij-35 (0.01%), DTT (2 mM), BSA (0.05%), EGTA (1 mM), HEPE (pH7.5) (50 mM) and BTK (2.67 nM). […] (Note the final volume of each well was 20 uL containing MgCl2 (10 mM), Brij-35 (0.01%), DTT (2 mM), BSA (0.05%), EGTA (1 mM), HEPE (pH7.5) (50 mM), FLPeptide (1.5 uM), ATP (1 mM) and BTK (2 nM).
The plates were incubated at room temperature for 90 minutes and then stopping buffer added (75 uL, containing 0.5 M EDTA) to terminate the reaction. Samples from each well were analyzed using EZ reader. The % remaining activity was calculated using read conversion ratio (CR) according to the equation: […]
XLFit (equation 201) was used to calculate IC50s by floating both bottom and top.
With respect to BTK activity, Table 4 lists activity as follows: • “A” denotes an IC50 of less than 10 nM, • “B” denotes an IC50 of from 10 nM to less than 100 nM; and • “C” denotes and IC50 of 100 nM or more.

Row | Structure (SMILES) | IC50 ([1]; Homo sapiens, Ramos) [nM] | IC50 (BTK) [nM] | IC50 [1] [nM]
1 | C#CC(=O)N1CCC[C@H](c2c(F)cc(C(N)=O)c3[nH]c(C)c(Cl)c23)C1 [Compound 7, (R)-3-chloro-5-fluoro-2-methyl-4-(1-propioloylpiperidin-3-yl)-1H-indole-7-carboxamide] | < 10 | < 10 | –
2 | C=CC(=O)N1CCCc2c(cccc2-c2c(F)cc(C(N)=O)c3[nH]c(C)c(Cl)c23)C1 [Compound 25a, 4-(2-Acryloyl-2,3,4,5-tetrahydro-1H-benzo[c]azepin-6-yl)-3-chloro-5-fluoro-2-methyl-1H-indole-7-carboxamide] | 10 to 100 | 10 to 100 | –
3 | C=CC(=O)N1CCc2c(cccc2-c2c(F)c(F)c(C(N)=O)c3[nH]c(C)c(Cl)c23)C1 [Compound 21a, 4-(2-acryloyl-1,2,3,4-tetrahydroisoquinolin-5-yl)-3-chloro-5,6-difluoro-2-methyl-1H-indole-7-carboxamide] | – | < 10 | 10 to 100
4 | C=CC(=O)N1CCc2c(cccc2-c2c(F)cc(C(N)=O)c3[nH]c(C)c(C#N)c23)C1 (atropisomer, axis not shown) [Compound 20i, (R)-4-(2-acryloyl-1,2,3,4-tetrahydroisoquinolin-5-yl)-3-cyano-5-fluoro-2-methyl-1H-indole-7-carboxamide] | – | < 10 | 10 to 100
5 | CC#CC(=O)N1CCC[C@H](c2c(F)cc(C(N)=O)c3[nH]c(C)c(Cl)c23)C1 [Compound 17, (R)-4-(1-(but-2-ynoyl)piperidin-3-yl)-3-chloro-5-fluoro-2-methyl-1H-indole-7-carboxamide] | ≥ 100 | ≥ 100 | –
6 | C=CC(=O)N1CCC2CCN(c3c(F)cc(C(N)=O)c4[nH]c(C)c(Cl)c34)CC21 (single isomer, unassigned) [Compound 29b, 4-(1-acryloyloctahydro-6H-pyrrolo[2,3-c]pyridin-6-yl)-3-chloro-5-fluoro-2-methyl-1H-indole-7-carboxamide] | – | < 10 | 10 to 100
7 | C=CC(=O)N1CCc2c(cccc2-c2c(F)cc(C(N)=O)c3[nH]c(C)c(Cl)c23)C1 (single isomer, unassigned) [Compound 20c] | – | ≥ 100 | ≥ 100
8 | C=CC(=O)N1CCC[C@H](c2c(F)cc(C(N)=O)c3[nH]c(C)c(C(F)F)c23)C1 [Compound 11, (R)-4-(1-acryloylpiperidin-3-yl)-3-(difluoromethyl)-5-fluoro-2-methyl-1H-indole-7-carboxamide] | ≥ 100 | ≥ 100 | –
9 | C=CC(=O)N1CCc2c(cccc2-c2c(F)cc(C(N)=O)c3[nH]c(C)c(F)c23)C1 (atropisomer, axis not shown) [Compound 20e, (S)-4-(2-acryloyl-1,2,3,4-tetrahydroisoquinolin-5-yl)-3,5-difluoro-2-methyl-1H-indole-7-carboxamide] | – | < 10 | < 10
10 | C=CC(=O)N[C@H]1C[C@@H](O)CN(c2c(F)cc(C(N)=O)c3[nH]c(C)c(C)c23)C1 [Compound 37, 4-((3S,5R)-3-acrylamido-5-hydroxypiperidin-1-yl)-5-fluoro-2,3-dimethyl-1H-indole-7-carboxamide] | ≥ 100 | 10 to 100 | –
11 | C=CC(=O)N1CCc2c(cccc2-c2c(F)cc(C(N)=O)c3[nH]c(C)c(F)c23)C1 (atropisomer, axis not shown) [Compound 20f, (R)-4-(2-acryloyl-1,2,3,4-tetrahydroisoquinolin-5-yl)-3,5-difluoro-2-methyl-1H-indole-7-carboxamide] | – | ≥ 100 | ≥ 100
12 | C=CC(=O)N1CC(F)CC(c2c(F)cc(C(N)=O)c3[nH]c(C)c(Cl)c23)C1 (stereo not shown) [Compound 9, 4-(1-acryloyl-5-fluoropiperidin-3-yl)-3-chloro-5-fluoro-2-methyl-1H-indole-7-carboxamide] | < 10 | < 10 | –
13 | C=CC(=O)N1CCc2c(cccc2-c2c(F)c(F)c(C(N)=O)c3[nH]c(C)c(Cl)c23)C1 (atropisomer, axis not shown) [Compound 21c, (S)-4-(2-acryloyl-1,2,3,4-tetrahydroisoquinolin-5-yl)-3-chloro-5,6-difluoro-2-methyl-1H-indole-7-carboxamide] | – | ≥ 100 | ≥ 100
14 | C#CC(=O)N1CCc2c(cccc2-c2c(F)cc(C(N)=O)c3[nH]c(C)c(C)c23)C1 [Compound 20j, 5-fluoro-2,3-dimethyl-4-(2-propioloyl-1,2,3,4-tetrahydroisoquinolin-5-yl)-1H-indole-7-carboxamide] | 10 to 100 | < 10 | –
15 | C=CC(=O)N1C[C@H]2CCN(c3c(F)cc(C(N)=O)c4[nH]c(C)c(Cl)c34)C[C@@H]2C1 (racemic) [Compound 39, 4-(trans-2-acryloyloctahydro-5H-pyrrolo[3,4-c]pyridin-5-yl)-3-chloro-5-fluoro-2-methyl-1H-indole-7-carboxamide] | ≥ 100 | ≥ 100 | –
16 | CC#CC(=O)N1CCC=C(c2c(F)cc(C(N)=O)c3[nH]c(C)c(Cl)c23)C1 [Compound 19, 4-(1-(but-2-ynoyl)-1,2,5,6-tetrahydropyridin-3-yl)-3-chloro-5-fluoro-2-methyl-1H-indole-7-carboxamide] | ≥ 100 | ≥ 100 | –
17 | C=CC(=O)N1CCCc2c(cccc2-c2c(F)cc(C(N)=O)c3[nH]c(C)c(Cl)c23)C1 (single isomer, unassigned) [Compound 25c] | ≥ 100 | ≥ 100 | –
18 | C=CC(=O)N1CCc2c(-c3c(F)cc(C(N)=O)c4[nH]c(C)c(Cl)c34)cccc2[C@H]1C (single isomer, unassigned) [Compound 22b] | – | ≥ 100 | ≥ 100
19 | C=CC(=O)N1CCC=C(c2c(F)c(F)c(C(N)=O)c3[nH]c(C)c(C#N)c23)C1 [Compound 5, 4-(1-acryloyl-1,2,5,6-tetrahydropyridin-3-yl)-3-cyano-5,6-difluoro-2-methyl-1H-indole-7-carboxamide] | 10 to 100 | < 10 | –
20 | C=CC(=O)N[C@H]1C[C@@H](F)CN(c2c(F)cc(C(N)=O)c3[nH]c(C)c(C)c23)C1 [Compound 34, 4-((3S,5R)-3-acrylamido-5-fluoropiperidin-1-yl)-5-fluoro-2,3-dimethyl-1H-indole-7-carboxamide] | ≥ 100 | 10 to 100 | –
21 | C=CC(=O)N1CCc2c(-c3c(F)cc(C(N)=O)c4[nH]c(C)c(Cl)c34)cccc2[C@@H]1C (single isomer, unassigned) [Compound 22c] | ≥ 100 | ≥ 100 | –
22 | C=CC(=O)N1Cc2cccc(-c3c(F)cc(C(N)=O)c4[nH]c(C)c(Cl)c34)c2C2(CC2)C1 [Compound 24a, 4-(2′-Acryloyl-2′,3′-dihydro-1′H-spiro[cyclopropane-1,4′-isoquinolin]-5′-yl)-3-chloro-5-fluoro-2-methyl-1H-indole-7-carboxamide] | ≥ 100 | 10 to 100 | –
23 | C=CC(=O)N1CCc2c(cccc2-c2c(F)cc(C(N)=O)c3[nH]c(C)c(C#N)c23)C1 [Compound 20g, 4-(2-acryloyl-1,2,3,4-tetrahydroisoquinolin-5-yl)-3-cyano-5-fluoro-2-methyl-1H-indole-7-carboxamide] | – | < 10 | 10 to 100
